Laboratory results from patent EP4745137A1 (Gluetacs Therapeutics (Shanghai) Co., Ltd., priority 2023, dated 2025).
Like-named read-outs stand apart in the source and are kept apart here.

Columns and labels:
WEE1 = molecular target: T1, WEE1 (Homo sapiens, UniProt P30291+Q96SW2); assay: Western-blot assay of substrate protein degradation in hPBMCs, WEE1; type: cell-based; details: 24 hours of compound treatment, compounds tested at 50 nM and 500 nM (concentration of the table not stated)
T1 construct: endogenous in cells; host or cells: hPBMCs (Milecell Biotechnologies)
T1 sequence (P30291 whole entry): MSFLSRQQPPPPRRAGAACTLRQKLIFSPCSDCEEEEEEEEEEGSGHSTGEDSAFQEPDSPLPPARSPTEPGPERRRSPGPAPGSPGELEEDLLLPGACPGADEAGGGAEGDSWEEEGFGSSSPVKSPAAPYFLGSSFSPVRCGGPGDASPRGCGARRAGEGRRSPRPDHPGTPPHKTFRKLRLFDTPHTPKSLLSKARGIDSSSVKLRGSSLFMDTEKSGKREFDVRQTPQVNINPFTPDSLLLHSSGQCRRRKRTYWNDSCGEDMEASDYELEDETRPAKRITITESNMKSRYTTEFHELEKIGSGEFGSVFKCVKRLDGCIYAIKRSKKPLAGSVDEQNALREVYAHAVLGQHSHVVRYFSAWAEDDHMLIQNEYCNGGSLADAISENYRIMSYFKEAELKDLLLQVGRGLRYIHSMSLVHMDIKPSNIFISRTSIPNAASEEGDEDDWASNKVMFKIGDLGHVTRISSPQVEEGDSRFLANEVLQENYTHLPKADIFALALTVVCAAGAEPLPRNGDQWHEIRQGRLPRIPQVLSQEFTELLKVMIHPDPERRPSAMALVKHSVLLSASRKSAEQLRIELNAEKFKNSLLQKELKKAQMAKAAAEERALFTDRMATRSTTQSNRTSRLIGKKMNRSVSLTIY
T1 sequence (Q96SW2 whole entry): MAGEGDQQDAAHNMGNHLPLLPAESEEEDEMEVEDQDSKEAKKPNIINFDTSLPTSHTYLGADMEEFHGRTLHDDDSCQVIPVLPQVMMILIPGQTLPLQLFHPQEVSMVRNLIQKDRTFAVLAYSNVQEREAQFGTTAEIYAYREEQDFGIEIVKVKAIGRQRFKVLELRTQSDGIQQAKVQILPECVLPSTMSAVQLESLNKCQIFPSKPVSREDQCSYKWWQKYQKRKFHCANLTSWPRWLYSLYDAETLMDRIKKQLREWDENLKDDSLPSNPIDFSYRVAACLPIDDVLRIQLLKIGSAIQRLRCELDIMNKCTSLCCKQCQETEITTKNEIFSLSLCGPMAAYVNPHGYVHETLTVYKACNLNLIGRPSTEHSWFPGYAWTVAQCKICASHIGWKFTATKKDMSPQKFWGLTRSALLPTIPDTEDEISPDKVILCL
T1 sequence (Q16531 whole entry partner): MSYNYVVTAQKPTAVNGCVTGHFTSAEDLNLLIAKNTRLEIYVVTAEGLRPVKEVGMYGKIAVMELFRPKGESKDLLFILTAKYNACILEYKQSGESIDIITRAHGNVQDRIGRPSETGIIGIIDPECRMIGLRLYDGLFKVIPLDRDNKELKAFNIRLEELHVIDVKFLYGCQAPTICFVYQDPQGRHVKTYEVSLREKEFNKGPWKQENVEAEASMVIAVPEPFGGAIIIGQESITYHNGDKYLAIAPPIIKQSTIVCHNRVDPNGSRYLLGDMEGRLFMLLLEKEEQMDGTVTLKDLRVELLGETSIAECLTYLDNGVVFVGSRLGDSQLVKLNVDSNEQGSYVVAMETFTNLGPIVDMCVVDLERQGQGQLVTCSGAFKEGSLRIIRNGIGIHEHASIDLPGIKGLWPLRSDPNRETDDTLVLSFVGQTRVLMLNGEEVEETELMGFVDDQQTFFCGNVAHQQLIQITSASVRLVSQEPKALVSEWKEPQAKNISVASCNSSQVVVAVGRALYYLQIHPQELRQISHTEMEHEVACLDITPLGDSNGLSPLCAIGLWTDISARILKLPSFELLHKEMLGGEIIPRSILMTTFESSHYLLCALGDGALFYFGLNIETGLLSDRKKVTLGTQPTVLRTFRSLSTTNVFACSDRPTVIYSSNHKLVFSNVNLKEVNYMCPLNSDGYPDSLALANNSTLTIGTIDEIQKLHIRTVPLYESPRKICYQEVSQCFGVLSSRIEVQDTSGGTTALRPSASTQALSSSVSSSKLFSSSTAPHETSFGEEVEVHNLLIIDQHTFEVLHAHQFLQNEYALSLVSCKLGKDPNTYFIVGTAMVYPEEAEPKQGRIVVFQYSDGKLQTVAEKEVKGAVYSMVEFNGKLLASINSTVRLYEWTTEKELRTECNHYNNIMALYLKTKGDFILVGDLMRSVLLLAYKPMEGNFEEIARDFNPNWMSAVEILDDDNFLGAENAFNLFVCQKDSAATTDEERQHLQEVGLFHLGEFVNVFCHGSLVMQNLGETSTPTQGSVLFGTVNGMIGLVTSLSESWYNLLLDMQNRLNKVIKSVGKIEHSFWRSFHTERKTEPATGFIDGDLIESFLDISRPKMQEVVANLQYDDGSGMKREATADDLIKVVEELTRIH

IKZF1 = molecular target: T2, IKZF1 (Homo sapiens, UniProt Q13422+Q96SW2); assay: Western-blot assay of substrate protein degradation in hPBMCs, IKZF1; type: cell-based; details: 24 hours of compound treatment, compounds tested at 50 nM and 500 nM (concentration of the table not stated)
T2 construct: endogenous in cells; host or cells: hPBMCs (Milecell Biotechnologies)
T2 sequence (Q13422 whole entry): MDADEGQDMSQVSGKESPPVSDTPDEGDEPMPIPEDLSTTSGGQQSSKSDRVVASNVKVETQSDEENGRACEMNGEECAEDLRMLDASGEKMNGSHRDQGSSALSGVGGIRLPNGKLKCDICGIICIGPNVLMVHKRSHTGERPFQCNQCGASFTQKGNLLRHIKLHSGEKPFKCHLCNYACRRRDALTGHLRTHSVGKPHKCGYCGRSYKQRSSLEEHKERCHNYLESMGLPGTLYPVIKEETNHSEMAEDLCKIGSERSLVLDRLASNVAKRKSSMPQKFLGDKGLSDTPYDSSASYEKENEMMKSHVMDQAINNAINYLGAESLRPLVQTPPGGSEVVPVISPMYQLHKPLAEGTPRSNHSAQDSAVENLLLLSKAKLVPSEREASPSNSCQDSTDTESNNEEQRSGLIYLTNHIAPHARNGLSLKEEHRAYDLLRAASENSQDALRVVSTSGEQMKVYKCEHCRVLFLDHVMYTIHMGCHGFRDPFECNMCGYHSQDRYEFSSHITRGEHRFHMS
T2 sequence (Q96SW2 whole entry): as the sequence (Q96SW2 whole entry) above
T2 sequence (Q16531 whole entry partner): as the sequence (Q16531 whole entry partner) above

IKZF2 = molecular target: T3, IKZF2 (Homo sapiens, UniProt Q96SW2+Q9UKS7); assay: Western-blot assay of substrate protein degradation in hPBMCs, IKZF2; type: cell-based; details: 24 hours of compound treatment, compounds tested at 50 nM and 500 nM (concentration of the table not stated)
T3 construct: endogenous in cells; host or cells: hPBMCs (Milecell Biotechnologies)
T3 sequence (Q9UKS7 whole entry): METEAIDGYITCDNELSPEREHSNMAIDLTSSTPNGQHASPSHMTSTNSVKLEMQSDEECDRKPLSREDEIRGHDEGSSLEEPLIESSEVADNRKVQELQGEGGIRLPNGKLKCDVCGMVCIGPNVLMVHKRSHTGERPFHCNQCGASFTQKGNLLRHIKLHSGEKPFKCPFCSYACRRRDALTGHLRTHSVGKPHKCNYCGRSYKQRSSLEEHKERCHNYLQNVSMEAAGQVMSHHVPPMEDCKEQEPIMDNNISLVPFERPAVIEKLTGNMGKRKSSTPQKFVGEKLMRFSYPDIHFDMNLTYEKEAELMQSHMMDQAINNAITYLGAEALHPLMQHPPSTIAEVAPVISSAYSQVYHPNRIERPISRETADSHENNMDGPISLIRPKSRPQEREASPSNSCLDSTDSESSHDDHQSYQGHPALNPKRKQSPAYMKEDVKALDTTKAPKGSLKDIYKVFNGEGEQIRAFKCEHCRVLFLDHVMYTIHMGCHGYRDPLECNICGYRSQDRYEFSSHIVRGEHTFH
T3 sequence (Q96SW2 whole entry): as the sequence (Q96SW2 whole entry) above
T3 sequence (Q16531 whole entry partner): as the sequence (Q16531 whole entry partner) above

IKZF3 = molecular target: T4, IKZF3 (Homo sapiens, UniProt Q96SW2+Q9UKT9); assay: Western-blot assay of substrate protein degradation in hPBMCs, IKZF3; type: cell-based; details: 24 hours of compound treatment, compounds tested at 50 nM and 500 nM (concentration of the table not stated)
T4 construct: endogenous in cells; host or cells: hPBMCs (Milecell Biotechnologies)

CK1α = molecular target: T5, CK1α (Homo sapiens, UniProt P48729+Q96SW2); assay: Western-blot assay of substrate protein degradation in hPBMCs, CK1α; type: cell-based; details: 24 hours of compound treatment, compounds tested at 50 nM and 500 nM (concentration of the table not stated)
T5 construct: endogenous in cells; host or cells: hPBMCs (Milecell Biotechnologies)
T5 sequence (P48729 whole entry): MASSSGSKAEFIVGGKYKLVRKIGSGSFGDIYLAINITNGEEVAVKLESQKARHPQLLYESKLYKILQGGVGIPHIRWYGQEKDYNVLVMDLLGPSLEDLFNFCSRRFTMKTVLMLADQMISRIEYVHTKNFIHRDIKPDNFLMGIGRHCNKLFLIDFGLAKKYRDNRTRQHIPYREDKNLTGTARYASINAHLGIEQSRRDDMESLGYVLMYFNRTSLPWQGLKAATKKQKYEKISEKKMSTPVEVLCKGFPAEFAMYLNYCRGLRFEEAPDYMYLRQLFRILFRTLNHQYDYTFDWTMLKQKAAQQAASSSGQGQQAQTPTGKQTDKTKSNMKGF
T5 sequence (Q96SW2 whole entry): as the sequence (Q96SW2 whole entry) above
T5 sequence (Q16531 whole entry partner): as the sequence (Q16531 whole entry partner) above

GSPT1 = molecular target: T6, GSPT1 (Homo sapiens, UniProt P15170+Q96SW2); assay: Western-blot assay of substrate protein degradation in hPBMCs, GSPT1; type: cell-based; details: 24 hours of compound treatment, compounds tested at 50 nM and 500 nM (concentration of the table not stated)
T6 construct: endogenous in cells; host or cells: hPBMCs (Milecell Biotechnologies)
T6 sequence (P15170 whole entry): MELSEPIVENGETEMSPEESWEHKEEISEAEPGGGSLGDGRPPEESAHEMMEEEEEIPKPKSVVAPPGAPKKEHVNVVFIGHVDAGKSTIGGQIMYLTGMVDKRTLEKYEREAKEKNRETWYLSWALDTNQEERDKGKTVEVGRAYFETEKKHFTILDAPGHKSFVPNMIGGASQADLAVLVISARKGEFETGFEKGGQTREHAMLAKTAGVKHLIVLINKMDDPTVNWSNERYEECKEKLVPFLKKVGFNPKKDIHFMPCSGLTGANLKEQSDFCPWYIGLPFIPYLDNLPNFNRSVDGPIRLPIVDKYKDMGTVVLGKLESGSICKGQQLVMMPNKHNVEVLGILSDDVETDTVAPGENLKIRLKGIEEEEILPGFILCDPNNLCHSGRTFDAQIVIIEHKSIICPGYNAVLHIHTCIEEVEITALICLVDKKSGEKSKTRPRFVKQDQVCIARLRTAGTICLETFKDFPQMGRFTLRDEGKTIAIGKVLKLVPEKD
T6 sequence (Q96SW2 whole entry): as the sequence (Q96SW2 whole entry) above
T6 sequence (Q16531 whole entry partner): as the sequence (Q16531 whole entry partner) above

[1] = molecular target: T7, human Cereblon WT GST-tagged protein (Homo sapiens, UniProt Q96SW2); assay: CRBN-binding affinity by HTRF (CEREBLON BINDING kit)
T7 construct: purchased CISBIO 64BDCRBNPEH
T7 sequence (Q96SW2 whole entry): as the sequence (Q96SW2 whole entry) above

[2] = HTRF inhibitory activity, CEREBLON BINDING kit, read-out: HTRF IC50

SMILES | Weel substrate protein remaining % (WEE1) | IKZF 1 substrate protein remaining % (IKZF1) | IKZF2 substrate protein remaining % (IKZF2) | IKZF3 substrate protein remaining % (IKZF3) | CK1a substrate protein remaining % (CK1α) | GSPT1 substrate protein remaining % (GSPT1) | IC50 [1, 2] [nM] | IC50 [1] [nM]
Cc1sc2ncnc(N3CCCN(Cc4ccc5c(c4)CN(C4CCC(=O)NC4=O)C5=O)CC3)c2c1C (stereo not drawn) [GT-04707, 3-(5-((4-(5,6-dimethylthieno[2,3-d]pyrimidin-4-yl)-1,4-diazepan-1-yl)methyl)-1-oxoisoindolin-2-yl)piperidine-2,6-dione] | B (80%< substrate protein remaining %≤ 100%) | A (0% ≤ substrate protein remaining % ≤ 80%) | A (0% ≤ substrate protein remaining % ≤ 80%) | A (0% ≤ substrate protein remaining % ≤ 80%) | A (0% ≤ substrate protein remaining % ≤ 80%) | A (0% ≤ substrate protein remaining % ≤ 80%) | < 500 | –
O=C1CCC(N2Cc3cc(CN4CCN(c5ncnc6scc(-c7ccccc7)c56)CC4)ccc3C2=O)C(=O)N1 (stereo not drawn) [GT-04709, 3-(1-oxo-5-((4-(5-phenylthieno[2,3-d]pyrimidin-4-yl)piperazin-1-yl)methyl)isoindolin-2-yl)piperidine-2,6-dione] | B (80%< substrate protein remaining %≤ 100%) | B (80%< substrate protein remaining %≤ 100%) | B (80%< substrate protein remaining %≤ 100%) | A (0% ≤ substrate protein remaining % ≤ 80%) | A (0% ≤ substrate protein remaining % ≤ 80%) | A (0% ≤ substrate protein remaining % ≤ 80%) | < 500 | –
O=C1CCC(N2Cc3cc(CN4CCC(n5c(=O)[nH]c6cc(F)ccc65)CC4)ccc3C2=O)C(=O)N1 (stereo not drawn) [GT-04714, 3-(5-((4-(5-fluoro-2-oxo-2,3-dihydro-1H-benzo[d]imidazol-1-yl)piperidin-1-yl)methyl)-1-oxoisoindolin-2-yl)piperidine-2,6-dione] | A (0% ≤ substrate protein remaining % ≤ 80%) | A (0% ≤ substrate protein remaining % ≤ 80%) | A (0% ≤ substrate protein remaining % ≤ 80%) | A (0% ≤ substrate protein remaining % ≤ 80%) | A (0% ≤ substrate protein remaining % ≤ 80%) | A (0% ≤ substrate protein remaining % ≤ 80%) | 500 to 1000 | –
O=C1CCC(N2Cc3cc(CN4CCC(c5ccon5)CC4)ccc3C2=O)C(=O)N1 (stereo not drawn) [GT-04715, 3-(5-((4-(isoxazol-3-yl)piperidin-1-yl)methyl)-1-oxoisoindolin-2-yl)piperidine-2,6-dione] | A (0% ≤ substrate protein remaining % ≤ 80%) | A (0% ≤ substrate protein remaining % ≤ 80%) | A (0% ≤ substrate protein remaining % ≤ 80%) | A (0% ≤ substrate protein remaining % ≤ 80%) | A (0% ≤ substrate protein remaining % ≤ 80%) | A (0% ≤ substrate protein remaining % ≤ 80%) | 1500 to 1900 | –
Cc1cc2c(C3CCN(Cc4ccc5c(c4)CN(C4CCC(=O)NC4=O)C5=O)CC3)ncnc2s1 (stereo not drawn) [GT-04717, 3-(5-((4-(6-methylthieno[2,3-d]pyrimidin-4-yl)piperidin-1-yl)methyl)-1-oxoisoindolin-2-yl)piperidine-2,6-dione] | B (80%< substrate protein remaining %≤ 100%) | B (80%< substrate protein remaining %≤ 100%) | A (0% ≤ substrate protein remaining % ≤ 80%) | A (0% ≤ substrate protein remaining % ≤ 80%) | B (80%< substrate protein remaining %≤ 100%) | A (0% ≤ substrate protein remaining % ≤ 80%) | 500 to 1000 | –
O=C1CCC(N2Cc3cc(CN4CCN(c5ncc6ccsc6n5)CC4)ccc3C2=O)C(=O)N1 (stereo not drawn) [GT-04725, 3-(1-oxo-5-((4-(thieno[2,3-d]pyrimidin-2-yl)piperazin-1-yl)methyl)isoindolin-2-yl)piperidine-2,6-dione] | B (80%< substrate protein remaining %≤ 100%) | B (80%< substrate protein remaining %≤ 100%) | B (80%< substrate protein remaining %≤ 100%) | B (80%< substrate protein remaining %≤ 100%) | B (80%< substrate protein remaining %≤ 100%) | A (0% ≤ substrate protein remaining % ≤ 80%) | < 500 | –
Cc1ccsc1C1=CCN(Cc2cccc3c2CN(C2CCC(=O)NC2=O)C3=O)CC1 (stereo not drawn) [GT-04728, 3-(4-((4-(3-methylthiophen-2-yl)-3,6-dihydropyridin-1(2H)-yl)methyl)-1-oxoisoindolin-2-yl)piperidine-2,6-dione] | B (80%< substrate protein remaining %≤ 100%) | B (80%< substrate protein remaining %≤ 100%) | B (80%< substrate protein remaining %≤ 100%) | B (80%< substrate protein remaining %≤ 100%) | B (80%< substrate protein remaining %≤ 100%) | A (0% ≤ substrate protein remaining % ≤ 80%) | 1000 to 1500 | –
O=C1CCC(N2Cc3cc(CN4CCC(N5C(=O)COc6cc(F)ccc65)CC4)ccc3C2=O)C(=O)N1 (stereo not drawn) [GT-04860, 3-(5-((4-(7-fluoro-3-oxo-2,3-dihydro-4H-benzo[b][1,4]oxazin-4-yl)piperidin-1-yl)methyl)-1-oxoisoindolin-2-yl)piperidine-2,6-dione] | B (80%< substrate protein remaining %≤ 100%) | A (0% ≤ substrate protein remaining % ≤ 80%) | A (0% ≤ substrate protein remaining % ≤ 80%) | A (0% ≤ substrate protein remaining % ≤ 80%) | B (80%< substrate protein remaining %≤ 100%) | A (0% ≤ substrate protein remaining % ≤ 80%) | – | < 500
O=C1CCC(N2Cc3cc(CN4CCN(c5ncnc6sc(Br)cc56)CC4)ccc3C2=O)C(=O)N1 (stereo not drawn) [GT-04861, 3-(5-((4-(6-bromothieno[2,3-d]pyrimidin-4-yl)piperazin-1-yl)methyl)-1-oxoisoindolin-2-yl)piperidine-2,6-dione] | A (0% ≤ substrate protein remaining % ≤ 80%) | A (0% ≤ substrate protein remaining % ≤ 80%) | A (0% ≤ substrate protein remaining % ≤ 80%) | A (0% ≤ substrate protein remaining % ≤ 80%) | A (0% ≤ substrate protein remaining % ≤ 80%) | A (0% ≤ substrate protein remaining % ≤ 80%) | < 500 | –
O=C1CCC(N2Cc3cc(CN4CCN(c5ncnc6sc(-c7ccccc7)cc56)CC4)ccc3C2=O)C(=O)N1 (stereo not drawn) [GT-04862, 3-(1-oxo-5-((4-(6-phenylthieno[2,3-d]pyrimidin-4-yl)piperazin-1-yl)methyl)isoindolin-2-yl)piperidine-2,6-dione] | A (0% ≤ substrate protein remaining % ≤ 80%) | A (0% ≤ substrate protein remaining % ≤ 80%) | A (0% ≤ substrate protein remaining % ≤ 80%) | A (0% ≤ substrate protein remaining % ≤ 80%) | A (0% ≤ substrate protein remaining % ≤ 80%) | A (0% ≤ substrate protein remaining % ≤ 80%) | < 500 | –
O=C1CCC(N2Cc3cc(CN4CC5CC(C4)N5c4cccc(Cl)c4Cl)ccc3C2=O)C(=O)N1 (stereo not drawn) [GT-04897, 3-(5-((6-(2,3-dichlorophenyl)-3,6-diazabicyclo[3.1.1]heptan-3-yl)methyl)-1-oxoisoindolin-2-yl)piperidine-2,6-dione] | B (80%< substrate protein remaining %≤ 100%) | B (80%< substrate protein remaining %≤ 100%) | B (80%< substrate protein remaining %≤ 100%) | B (80%< substrate protein remaining %≤ 100%) | B (80%< substrate protein remaining %≤ 100%) | A (0% ≤ substrate protein remaining % ≤ 80%) | 1500 to 1900 | –
O=C1CCC(N2Cc3cc(CN4CC5CCC(C4)N5c4cccc(Cl)c4Cl)ccc3C2=O)C(=O)N1 (stereo not drawn) [GT-04899, 3-(5-((8-(2,3-dichlorophenyl)-3,8-diazabicyclo[3.2.1]octan-3-yl)methyl)-1-oxoisoindolin-2-yl)piperidine-2,6-dione] | B (80%< substrate protein remaining %≤ 100%) | A (0% ≤ substrate protein remaining % ≤ 80%) | B (80%< substrate protein remaining %≤ 100%) | B (80%< substrate protein remaining %≤ 100%) | B (80%< substrate protein remaining %≤ 100%) | B (80%< substrate protein remaining %≤ 100%) | 500 to 1000 | –
